Tested on: American bullfrog Rana catesbeiana tadpoles
Experiment: Loss of righting reflex (LORR) in tadpoles
Type: in vivo
Conditions: Aquarana catesbeiana, water bath exposure
Protocol: Anesthesia is defined as the combination of a lack of movement to a given stimulus, lack of awareness, amnesia and analgesia. The surrogate of such is manifest in the tadpole as the loss of righting reflex (LORR). Early prelimb-bud stage American bullfrog Rana catesbeiana tadpoles (5 per 50 ml beaker) were placed in room temperature oxygenated water buffered with 2.5 mM Tris HCl buffer (pH=7.4) and containing a concentration of test compound ranging from 0.11 uM-1 mM. Tadpoles were manually tipped every 5 min with a glass rod or stream of water until their righting reflex response stabilized or 120 minutes elapses. […] At the end of each study, tadpoles were transferred to fresh water to assess whether the anesthetic action was reversible.

Structure (SMILES)	EC50
CCOC(=O)c1cc(C)n(-c2cccc(Cl)c2Cl)c1-c1ccccc1 [M]	~20 µM
CCOC(=O)c1cc(-c2ccc(OC)cc2)n(-c2ccc(Cl)cc2)c1C [Compound A]	1.5 µM
COC(=O)c1cc(-c2ccc(Br)cc2)n(-c2ccc(Br)cc2)c1C [K]	~40 µM
COC(=O)c1cc(-c2ccc(C)c(C)c2)n(-c2ccc(Cl)c(Cl)c2)c1C [H]	> 40 µM
COC(=O)c1cc(-c2ccc(Br)cc2)n(-c2cccc(Cl)c2C)c1C [J]	> 40 µM
Cc1cc(C(=O)OCc2ccc(Cl)cc2)c(C)n1-c1ccc(F)cc1 [E]	~40 µM
Cc1cc(C(=O)OCc2ccc(Cl)cc2Cl)c(C)n1-c1ccccc1 [D]	~20 µM
COC(=O)c1cc(-c2ccc(C)c(C)c2)n(-c2ccc(Br)cc2)c1C [F]	~20 µM
COC(=O)c1cc(-c2ccc(C)c(C)c2)n(-c2ccc(F)cc2Br)c1C [G]	~3 µM
CCOC(=O)c1cc(-c2ccc(Cl)cc2)n(-c2ccccc2)c1C [Compound B]	0.53 µM
Cc1cc(C(=O)OCc2c(Cl)cccc2Cl)c(C)n1-c1ccccc1 [C]	~5 µM

Tested on: native GABA-A receptors
Experiment: Electrophysiology in hippocampal brain slices (paired pulse inhibition, CA1)
Type: cell-based
Conditions: rat hippocampal slice
Protocol: Brain slices were prepared from male Sprague-Dawley rats that had been deeply anesthetized with isoflurane. The brain was quickly removed and placed in ice-cold artificial cerebrospinal fluid (ACSF) that was saturated with 95% O2 and 5% CO2 (carbogen) to achieve a pH of 7.4. The ACSF was composed of the following ions dissolved in spectrophotometry grade water (EMD Chemicals Inc., Billerica, Mass.) and stated in millimolar concentrations: Na 151.25, Cl 131.5, HCO3 26, K 2.5, Ca 2, Mg 2, SO4 2, H2PO4 1.25, and glucose 10. Coronal brain slices were prepared using a vibratome (Model 1500, Technical Products International Inc., St. Louis, Mo.) and 400-μm-thick slices were hemisected and placed on cellulose filter papers. They were stored at a gas (carbogen)-liquid (ACSF) interface in a holding chamber for at least 1 hour before use. […]
Evoked field potentials were measured using thin-walled glass pipettes (1.0 ID, 1.5 OD; Garner Glass Co., Claremont, Calif.) filled with ACSF. […]
Recorded signals were conditioned using an Axoclamp 2B preamplifier (Axon Instruments, Sunnyvale, Calif.) with a bandpass from DC to 30 kHz and gain of ×10. […] Responses were measured and plotted in real time to ensure that stable baselines (<±2.0% variation) were recorded for at least 20 minutes before the experiments began. […]

Structure (SMILES)	concentration at which paired pulse inhibition was noted
CCOC(=O)c1cc(-c2ccc(Cl)cc2)n(-c2ccccc2)c1C [Compound B]	100 µM

Tested on: GABAaR
Experiment: not given
Conditions: known literature value; read-out: EC50 for GABAaR potentiation; cited from earlier work

Structure (SMILES)	EC50
Oc1ccccc1 [phenol]	920 µM
CCOC(=O)c1cn(-c2ccc(Cl)cc2Cl)c(-c2ccc(Br)cc2)n1 [Compound 1n]	0.19 µM

Tested on: American bullfrog Rana catesbeiana tadpoles
Experiment: Loss of righting reflex (LORR) in tadpoles
Type: in vivo
Conditions: Aquarana catesbeiana; text refers to Table 2; read-out: EC50 for GABAaR potentiation in tadpoles

Structure (SMILES)	EC50
CCOC(=O)c1cc(-c2ccc(OC)cc2)n(-c2ccc(Cl)cc2)c1C [Compound A]	~1500 nM

From patent US10513494B2, “Methods, compounds, and compositions for anesthesia” (THE BOARD OF TRUSTEES OF THE LELAND STANFORD JUNIOR …, priority 2014, dated 2019)
